For experiment [1], the target named is T1, N6-adenosine-methyltransferase catalytic subunit (Homo sapiens, UniProt Q86U44). Briefly: Inhibition of METTL3-mediated m6A methylation in human […] cells assessed as reduction in mRNA level measured after 24 hrs by LC-MS/MS analysis. Format: cell-based, MOLM-13.
Experiment [2] concerns the target T1, N6-adenosine-methyltransferase catalytic subunit. Nature of the experiment: Inhibition of METTL3 (unknown origin) using 3' biotinylated RNA (UCUGGACUAAA) and 3H-SAM as a substrate preincubated for 5 mins followed by substrate addition incubated for 30 mins by scintillation counting method.

Results on six compounds are retold here after ChEMBL document CHEMBL4825715, “Novel METTL3 Modulators for Treating Acute Myeloid Leukemia (AML)” (ACS Med Chem Lett, 2021).

One may read the IC50 as the midpoint of a concentration-inhibition curve.

T1 sequence (Q86U44 whole entry): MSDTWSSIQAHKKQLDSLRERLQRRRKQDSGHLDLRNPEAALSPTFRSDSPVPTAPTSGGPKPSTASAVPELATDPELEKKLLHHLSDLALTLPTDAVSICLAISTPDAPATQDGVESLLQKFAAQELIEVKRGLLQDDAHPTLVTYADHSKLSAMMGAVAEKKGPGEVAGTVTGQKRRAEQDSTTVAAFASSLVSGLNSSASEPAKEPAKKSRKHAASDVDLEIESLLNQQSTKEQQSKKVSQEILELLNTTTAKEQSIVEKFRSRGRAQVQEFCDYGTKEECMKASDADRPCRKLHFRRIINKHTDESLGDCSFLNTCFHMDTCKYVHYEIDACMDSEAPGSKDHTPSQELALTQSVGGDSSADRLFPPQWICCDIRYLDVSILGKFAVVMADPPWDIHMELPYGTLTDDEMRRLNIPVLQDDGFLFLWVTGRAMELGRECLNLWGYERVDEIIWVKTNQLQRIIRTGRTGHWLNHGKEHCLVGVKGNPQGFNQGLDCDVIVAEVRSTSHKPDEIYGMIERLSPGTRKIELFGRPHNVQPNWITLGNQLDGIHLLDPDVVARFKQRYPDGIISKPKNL

Turning to `CCNc1ccc2ccc(OC[C@H]3O[C@@H](n4cc(C5CCCC5)c5c(N)ncnc54)[C@H](O)[C@@H]3O)cc2n1`, the IC50 in experiment [1] is < 1 µM; in experiment [2], < 0.01 µM.
For `Nc1ncnc2c1c([C@@H]1CCCO1)cn2[C@@H]1O[C@H](COc2ccc3ccc(N4CCC4)nc3c2)[C@@H](O)[C@@H]1F` the same measures were < 1 µM and < 0.01 µM.
For `CNc1ccc2ccc(OC[C@H]3O[C@@H](n4cc(-c5ccn(C)n5)c5c(N)ncnc54)[C@H](O)[C@@H]3O)cc2n1` the same measures were < 1 µM and < 0.01 µM.
For `Cc1coc(-c2cn([C@@H]3O[C@H](COc4ccc5ccc(N6CCC6)nc5c4)[C@@H](O)[C@@H]3F)c3ncnc(N)c23)n1` the same measures were < 1 µM and < 0.01 µM.
`Nc1ncnc2c1c(-n1cccn1)cn2[C@@H]1O[C@H](COc2ccc3ccc(N4CCC4)nc3c2)[C@@H](O)[C@@H]1F`: the IC50 is < 1 µM in experiment [1] and < 0.01 µM in experiment [2].
On the same counts, the results for `CNc1ccc2ccc(OC[C@H]3O[C@@H](n4cc(-c5ccc(C)o5)c5c(N)ncnc54)[C@@H](F)[C@@H]3O)cc2n1` are < 1 µM and < 0.01 µM.
